Tests used:
[1] = tested on: S. aureus DSM 20231; experiment: fitness (endpoint OD595 vs no drug) (fraction); higher = more growth
In short: (§1)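 Fitness was measured as bacterial growth in 384-well plates inoculated at OD595 0.01 (30 µl, or 55 µl for S. pneumoniae). Media were TSB, LB Lennox or CY, at 37 °C. OD595 was read every 30 min for 14 h and background-subtracted against the first reading. Fitness is OD595 at the transition into stationary phase divided by the robust mean of no-drug control wells, capped at 1.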

[2] = tested on: S. pneumoniae D39V; experiment: as above
In short: as §1
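Also: OD595 on entry to stationary phase over no-drug wells; at most 1.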

CC(=O)Oc1ccccc1C(=O)O [Acetylsalicylic acid] + COc1cc(Cc2cnc(N)nc2N)cc(OC)c1OC [Trimethoprim]
fitness, [1]
Details	partner 0.125 µg/mL	partner 0.25 µg/mL	partner 0.5 µg/mL	partner 1 µg/mL
first compound 250 µg/mL	0.582	0.516	0.225	0.0606
first compound 500 µg/mL	–	–	0.276	0.0647
first compound 1000 µg/mL	0.4	–	0.23	0.0318

CN(C)[C@@H]1C(O)=C(C(N)=O)C(=O)[C@@]2(O)C(O)=C3C(=O)c4c(O)ccc(Cl)c4[C@@](C)(O)[C@H]3C[C@@H]12 [Chlortetracycline] + Cn1nnc(-c2ccc(-c3ccc(N4C[C@H](CO)OC4=O)cc3F)cn2)n1 [Tedizolid]
[1], first compound 0.006 µg/mL, one replicate
Details	fitness
partner 0.0625 µg/mL	0.696
partner 0.125 µg/mL	0.659
partner 0.25 µg/mL	0.361

fitness
Details	first compound 0.012 µg/mL	first compound 0.024 µg/mL	first compound 0.048 µg/mL	first compound 0.375 µg/mL	first compound 0.75 µg/mL	first compound 1.5 µg/mL
[1], partner 0.0625 µg/mL	0.496	0.236	0.0517	–	–	–
[1], partner 0.125 µg/mL	0.532	0.172	0.0562	–	–	–
[1], partner 0.25 µg/mL	0.25	0.161	0.102	–	–	–
[2], partner 0.03125 µg/mL	0.966	0.949	0.944	–	–	–
[2], partner 0.0625 µg/mL	0.95	0.962	0.878	–	–	–
[2], partner 0.125 µg/mL	0.795	0.789	0.845	0.0202	0.0366	0.0518
[2], partner 0.25 µg/mL	–	–	–	0.0375	0.043	0.0385
[2], partner 0.5 µg/mL	–	–	–	0.0294	0.0348	0.0435

CC(=O)Oc1ccccc1C(=O)O [Acetylsalicylic acid] + CC(=O)NC[C@H]1CN(c2ccc(N3CCOCC3)c(F)c2)C(=O)O1 [Linezolid]
fitness
Details	first compound 250 µg/mL	first compound 500 µg/mL	first compound 1000 µg/mL
[1], partner 0.125 µg/mL	0.868	–	0.509
[1], partner 0.25 µg/mL	0.582	0.486	0.275
[1], partner 0.5 µg/mL	0.203	0.159	0.117
[2], partner 0.105 µg/mL	0.879	0.866	0.776
[2], partner 0.2 µg/mL	0.675	0.623	0.463
[2], partner 0.21 µg/mL	0.756	0.773	0.712
[2], partner 0.4 µg/mL	0.598	0.582	0.439
[2], partner 0.42 µg/mL	0.573	0.561	0.442
[2], partner 0.8 µg/mL	0.252	0.24	0.208

[1], partner 1 µg/mL, one replicate
Details	fitness
first compound 250 µg/mL	0.0592
first compound 500 µg/mL	0.0468
first compound 1000 µg/mL	0.0354

CC(=O)Oc1ccccc1C(=O)O [Acetylsalicylic acid] + CC1=C\[C@@H](O)CC(=O)Cc2nc(co2)C(=O)N2CCC=C2C(=O)O[C@H](C(C)C)[C@H](C)/C=C/C(=O)NC\C=C\1 [Virginiamycin M1]
fitness
Details	first compound 250 µg/mL	first compound 500 µg/mL	first compound 1000 µg/mL
[1], partner 0.0625 µg/mL	0.86	0.764	0.564
[1], partner 0.125 µg/mL	0.922	–	–
[1], partner 0.25 µg/mL	0.877	0.715	0.503
[2], partner 0.5 µg/mL	0.967	0.964	0.872
[2], partner 1 µg/mL	0.914	0.961	–
[2], partner 2 µg/mL	0.933	0.903	–

fitness, one replicate
Details	first compound 250 µg/mL	first compound 500 µg/mL	first compound 1000 µg/mL
[1], partner 0.5 µg/mL	0.776	0.789	0.371
[1], partner 1 µg/mL	0.818	0.781	0.389
[2], partner 0.15 µg/mL	0.954	0.988	0.949
[2], partner 0.3 µg/mL	0.951	0.938	0.918

CC(=O)Oc1ccccc1C(=O)O [Acetylsalicylic acid] + O=C(N[C@H](CO)[C@H](O)c1ccc([N+](=O)[O-])cc1)C(Cl)Cl [Chloramphenicol]
fitness, [1]
Details	first compound 250 µg/mL	first compound 500 µg/mL	first compound 1000 µg/mL
partner 0.75 µg/mL	0.688	–	0.307
partner 1.5 µg/mL	0.498	–	0.225
partner 3 µg/mL	0.136	0.098	0.0799

CC(=O)Oc1ccccc1C(=O)O [Acetylsalicylic acid] + Cc1onc(-c2ccccc2)c1C(=O)N[C@@H]1C(=O)N2[C@@H]1SC(C)(C)[C@@H]2C(=O)O [Oxacillin]
fitness
Details	first compound 250 µg/mL	first compound 500 µg/mL	first compound 1000 µg/mL
[1], partner 0.0156 µg/mL	0.763	0.656	0.561
[1], partner 0.0312 µg/mL	0.583	0.548	0.519
[1], partner 0.0625 µg/mL	0.494	0.508	0.393
[2], partner 0.005 µg/mL	0.987	0.959	0.921
[2], partner 0.01 µg/mL	0.969	0.984	–
[2], partner 0.02 µg/mL	0.886	0.91	–
[2], partner 0.04 µg/mL	0.501	0.643	–

CC(=O)Oc1ccccc1C(=O)O [Acetylsalicylic acid] + CCN(CC)CCOC(=O)c1ccc(N)cc1 [Procaine]
fitness
Details	partner 85.5 µg/mL	partner 171 µg/mL	partner 342 µg/mL
[1], first compound 250 µg/mL	0.916	0.971	0.963
[1], first compound 500 µg/mL	0.849	0.896	–
[2], first compound 250 µg/mL	≥ 1	0.989	0.966
[2], first compound 500 µg/mL	≥ 1	0.995	0.97
[2], first compound 1000 µg/mL	0.922	0.86	0.89

CC(=O)Oc1ccccc1C(=O)O [Acetylsalicylic acid] + CO[C@@]12[C@H](COC(N)=O)C3=C(C(=O)C(C)=C(N)C3=O)N1C[C@@H]1N[C@@H]12 [Mitomycin C]
fitness
Details	first compound 250 µg/mL	first compound 500 µg/mL	first compound 1000 µg/mL
[1], partner 0.0156 µg/mL	0.731	0.612	0.446
[1], partner 0.0312 µg/mL	0.674	0.579	–
[1], partner 0.0625 µg/mL	0.559	0.483	–
[2], partner 0.001075 µg/mL	≥ 1	≥ 1	≥ 1
[2], partner 0.002 µg/mL	0.703	0.673	0.416
[2], partner 0.00215 µg/mL	0.888	0.904	0.868
[2], partner 0.004 µg/mL	0.733	0.657	0.426
[2], partner 0.0043 µg/mL	0.8	0.811	0.774
[2], partner 0.008 µg/mL	0.548	0.454	0.335

CC(=O)Oc1ccccc1C(=O)O [Acetylsalicylic acid] + COc1c(N2C[C@@H]3CCCN[C@@H]3C2)c(F)cc2c(=O)c(C(=O)O)cn(C3CC3)c12 [Moxifloxacin]
fitness
Details	first compound 250 µg/mL	first compound 500 µg/mL	first compound 1000 µg/mL
[1], partner 0.0075 µg/mL	0.799	0.703	0.577
[1], partner 0.015 µg/mL	0.7	0.656	0.58
[1], partner 0.03 µg/mL	0.649	0.623	0.578
[2], partner 0.005 µg/mL	0.975	0.96	–
[2], partner 0.01 µg/mL	0.98	0.987	0.812
[2], partner 0.02 µg/mL	0.932	0.94	0.829
[2], partner 0.0312 µg/mL	0.188	0.192	0.216
[2], partner 0.0625 µg/mL	0.17	0.142	0.137
[2], partner 0.125 µg/mL	0.0443	0.0397	0.0308

fitness, [1], one replicate
Details	first compound 250 µg/mL	first compound 500 µg/mL	first compound 1000 µg/mL
partner 0.06 µg/mL	0.647	0.627	0.584
partner 0.12 µg/mL	0.532	0.536	0.529

CC(=O)Oc1ccccc1C(=O)O [Acetylsalicylic acid] + CC[C@H]1OC(=O)[C@H](C)[C@@H](O[C@H]2C[C@@](C)(OC)[C@@H](O)[C@H](C)O2)[C@H](C)[C@@H](O[C@@H]2O[C@H](C)C[C@H](N(C)C)[C@H]2O)[C@](C)(O)C[C@@H](C)CN(C)[C@H](C)[C@@H](O)[C@]1(C)O [Azithromycin]
fitness, [1]
Details	first compound 250 µg/mL	first compound 500 µg/mL	first compound 1000 µg/mL
partner 0.125 µg/mL	0.806	0.714	0.601
partner 0.25 µg/mL	0.83	0.748	0.614
partner 0.5 µg/mL	0.702	–	0.597

CC(=O)Oc1ccccc1C(=O)O [Acetylsalicylic acid] + Cc1ncc([N+](=O)[O-])n1CCO [Metronidazole]
fitness
Details	partner 0.625 µg/mL	partner 1.073 µg/mL	partner 1.25 µg/mL	partner 2.145 µg/mL	partner 2.5 µg/mL	partner 4.29 µg/mL	partner 5 µg/mL
[1], first compound 250 µg/mL	0.939	–	≥ 1	–	≥ 1	–	–
[1], first compound 500 µg/mL	0.778	–	0.791	–	0.759	–	–
[2], first compound 250 µg/mL	–	0.982	0.971	0.959	0.989	0.937	0.972
[2], first compound 500 µg/mL	–	0.979	0.975	0.965	1	0.975	0.965
[2], first compound 1000 µg/mL	–	0.946	0.906	0.936	0.914	0.932	0.915

CC(=O)Oc1ccccc1C(=O)O [Acetylsalicylic acid] + CCC[C@@H]1C[C@@H](C(=O)N[C@@H]([C@H]2O[C@H](SC)[C@H](O)[C@@H](O)[C@H]2O)[C@H](C)Cl)N(C)C1 [Clindamycin]
fitness
Details	first compound 250 µg/mL	first compound 500 µg/mL	first compound 1000 µg/mL
[1], partner 0.0312 µg/mL	–	–	0.28
[1], partner 0.0625 µg/mL	0.143	0.169	0.114
[1], partner 0.125 µg/mL	0.0488	0.0833	0.0683
[2], partner 0.0125 µg/mL	0.759	0.697	0.508
[2], partner 0.015 µg/mL	0.857	0.771	0.528
[2], partner 0.025 µg/mL	0.468	0.435	0.37
[2], partner 0.03 µg/mL	0.677	0.574	0.37
[2], partner 0.05 µg/mL	0.164	0.166	0.129
[2], partner 0.06 µg/mL	0.331	0.246	0.104

Source: the supplement of paper PMC10627819
